PMC8197855, “Peptide/β-Peptoid Hybrids with Activity against Vancomycin-Resistant Enterococci: Influence of Hydrophobicity and Structural Features on Antibacterial and Hemolytic Properties” (International Journal of Molecular Sciences, 2021)
≈ marks a conversion by molar mass, not a printed value.

Experiments:
Hemolytic activity = type: cell-based, human; conditions: human, human red blood cells (washed, 1% suspension), 37 °C, 1% red blood cell suspension
Experimental: (§1) A suspension of hRBCs (Single-donor human red blood cells—washed; catalogue No. IPLA-W3 from Innovative researchTM) was washed three times with PBS buffer and centrifuged for 5 min at 2500 rpm. A two-fold serial dilution of compounds in PBS buffer was prepared. Plates (conical-bottomed 96-well plates) with 3 replicate wells per dilution, containing 1% red blood cell suspension, were prepared and dosed with the test compound to achieve a final concentration of 400 μg/mL in a total volume of 100 μL. The plates were incubated (37 °C) for 60 min with mild agitation, and then the cells were pelleted by centrifugation at 1500 rpm for 5 min. Then, the supernatants (50 μL) were transferred to a fresh 96-well plate, and then the concentration of hemoglobin was detected by measuring the OD at 405 nm. The OD of cells incubated with 1% SDS achieved 100% hemolysis, while the OD of cells incubated with PBS buffer achieved 0% hemolysis. The concentration tested was 400 μg/mL (only average values are stated in Table 3). The percent hemolysis was calculated by using the formula:Hemolysis(%) = 100 × [(Asample − Aneg.control)/(Apos. control − Aneg.control)]

human red blood cells = assay: Hemolytic activity; type: cell-based; conditions: 60 min, 37 °C, 1% red blood cell suspension
Experimental: as §1

E. faecium 1798 [1] = assay: microbe, parasite or virus in culture; type: cell-based, Enterococcus faecium
Experimental: (§2) Overnight cultures of the enterococcal isolates were diluted in physiological saline (0.9% NaCl) to reach a turbidity of 0.5 McFarland units (Sensititre® nephelometer and the Sensititre® McFarland Standard). Bacterial suspensions were adjusted to 5 × 10^5 CFU/mL in MHB II or BHI broth containing two-fold dilutions of peptidomimetics or conventional antibiotics in a final volume of 100 µL. The plates were incubated for 24 h at 37 °C without shaking. […] All experiments were performed in three biological replicates.

E. faecium 2961 [2] = assay: microbe, parasite or virus in culture; type: cell-based, Enterococcus faecium
Experimental: as §2

E. faecium 3978 = assay: microbe, parasite or virus in culture; type: cell-based, Enterococcus faecium
Experimental: as §2

E. faecium D344R = assay: microbe, parasite or virus in culture; type: cell-based, Enterococcus faecium; conditions: 24 h
Experimental: as §2

E. faecalis 39002 = assay: microbe, parasite or virus in culture; type: cell-based, Enterococcus faecalis
Experimental: as §2

E. faecalis 38262 = assay: microbe, parasite or virus in culture; type: cell-based, Enterococcus faecalis
Experimental: as §2

[3] = Hydrophobicity by analytical RP-HPLC (% MeCN at peak elution); type: physicochemical
Experimental: Water was filtered by using an Evoqua LaboStar PRO TWF Ultra Pure Water System prior to use in high-performance liquid chromatography (HPLC). The retention time for each peptidomimetic was determined by analytical HPLC using a Phenomenex Luna C18(2) HST column (100 mm × 3 mm; particle size: 2.5 μm; pore size: 100 Å) on a Shimadzu Prominence and Shimadzu Nexera system using an aqueous MeCN gradient with 0.1% trifluoroacetic acid (TFA) added (eluent A: 5:95 MeCN–H2O + 0.1% TFA; eluent B: 95:5 MeCN–H2O + 0.1% TFA); a flow rate of 0.5 mL/min was used. For the elution of peptidomimetics, a linear gradient of 0% to 60% B over 10 min was used with UV detection at λ = 220 nm. The percentage MeCN at peak elution was calculated from the retention time (tR) by using the following formula:%MeCN = [0.95 × 0.6 × tR/10 + 0.05 × (1 − 0.6 × tR/10)] × 100%

[4] = tested on: HepG2 cell line ATCC HB-8065; assay: Effect on HepG2 cell viability (MTT assay); type: cell-based, human; conditions: 48 h
Experimental: The effect of peptidomimetics on mammalian cell viability was determined on the HepG2 cell line ATCC HB-8065. In brief, HepG2 cells were seeded into flat-bottom 96-well plates at a concentration of 5000 cells per well. The cells were incubated for 24 h in a humidified incubator (5% CO2, 37 °C). Subsequently, the medium was removed, and the cells were incubated for 48 h in a humidified incubator (5% CO2, 37 °C) with peptidomimetics in serial dilutions. An MTT assay was then performed; in brief, after incubation with the test compounds, the culture medium was removed and fresh medium with 0.2 mg/mL MTT was then added into each well. After incubation (3 h, 37 °C, 5% CO2), the medium with MTT was removed, and 200 μL dimethyl sulfoxide was added at once to each sample. The absorbance of MTT was measured using the spectrophotometer TECAN Infinite M1000 at 540 nm. The relative viability was calculated by using the formula:ODtreated cells × 100/ODcontrol cells
The IC50 values were calculated using the program Graph Pad Prism 5.0. For all compounds, the test range was 10–1280 μg/mL.

E. faecium isolates = type: cell-based, Enterococcus faecium; conditions: 24 h
Experimental: as §2

E. faecium ATCC 19434 [5] = assay: microbe, parasite or virus in culture; type: cell-based, Enterococcus faecium
Experimental: as §2, with “replicates. […]” for “replicates.”

E. faecalis ATCC 29212 [6] = assay: microbe, parasite or virus in culture; type: cell-based, Enterococcus faecalis; conditions: Enterococcus faecalis, ATCC29212, 24 h, read-out: Minimum inhibitory concentration
Experimental: as §2, with “replicates. […]” for “replicates.”

E. faecalis ATCC 29212 [7] = assay: Broth checkerboard assay with conventional antibiotics; type: cell-based, Enterococcus faecalis; conditions: antibiotic alone (-); BHI broth
Experimental: (§3) The strain culture preparation and final volume were the same as in the MIC assay. […] The plates were incubated for 24 h at 37 °C without shaking. […] All experiments were performed in two biological replicates.
(§4) To evaluate the effect of the combinations, the fractional inhibitory concentration index (FICI) was calculated for each combination according to:ΣFIC = FICA + FICB = (CA/MICA) + (CB/MICB)
(§5) The drug interaction was scored as follows: synergy—FICI ≤ 0.5; no interaction—FICI > 0.5–4; antagonism—FICI > 4 [40].

E. faecium 1798 [8] = assay: as above; type: cell-based, Enterococcus faecium; conditions: antibiotic alone (-); BHI broth
Experimental: as §3, §4, §5

E. faecium 2961 [9] = assay: as above; type: cell-based, Enterococcus faecium; conditions: antibiotic alone (-); BHI broth
Experimental: as §3, §4, §5

E. faecium ATCC 19434 [10] = assay: as above; type: cell-based, Enterococcus faecium; conditions: antibiotic alone (-); BHI broth
Experimental: as §3, §4, §5

CC(=O)N[C@@H](CCCCNC(=N)N)C(=O)N(CCC(=O)N[C@@H](CCCCNC(=N)N)C(=O)N(CCC(=O)N[C@@H](CCCCNC(=N)N)C(=O)N(CCC(=O)N[C@@H](CCCCNC(=N)N)C(=O)N(CCC(=O)N[C@@H](CCCCNC(=N)N)C(=O)N(CCC(=O)N[C@@H](CCCCNC(=N)N)C(=O)N(CCC(=O)N[C@@H](CCCCNC(=N)N)C(=O)N(CCC(=O)N[C@@H](CCCCNC(=N)N)C(=O)N(CCC(N)=O)Cc1ccccc1)Cc1ccccc1)Cc1ccccc1)Cc1ccccc1)Cc1ccccc1)Cc1ccccc1)Cc1ccccc1)Cc1ccccc1 [Compound 1, Ac-[hArg-βNPhe]8-NH2]
hemolysis at 60 min, 400 µg/mL (Hemolytic activity): ~6% | Hemolysis (at 400 µg/mL) (human red blood cells): 6.1% | Minimum inhibitory concentration (E. faecium 1798 [1]; 1798, 24 h): 2 µg/mL (≈ 0.738 µM) | Minimum inhibitory concentration (E. faecium 2961 [2]; 2961, 24 h): 2 µg/mL (≈ 0.738 µM) | Minimum inhibitory concentration (E. faecium 3978; 3978, 24 h): 4 µg/mL (≈ 1.48 µM) | Minimum inhibitory concentration (E. faecium D344R; E. faecium D344R, human clinical isolate): 4 µg/mL (≈ 1.48 µM) | Minimum inhibitory concentration (E. faecalis 39002; 39002, 24 h): 32 µg/mL (≈ 11.8 µM) | Minimum inhibitory concentration (E. faecalis 38262; 38262, 24 h): 16 µg/mL (≈ 5.9 µM) | Hydrophobicity, Luna C18(2) HST (0–60% B; 10 min), retention converted into % MeCN [3]: 41.8 % MeCN | HepG2 IC50 [4]: 9 µg/mL | MIC (range or typical value) against E. faecium (E. faecium isolates): 2 to 8 µg/mL | Minimum inhibitory concentration (E. faecium ATCC 19434 [5]; ATCC 19434, 24 h): 8 µg/mL (≈ 2.95 µM)

CN[C@H](CC(C)C)C(=O)N[C@H]1C(=O)N[C@@H](CC(N)=O)C(=O)N[C@H]2C(=O)N[C@H]3C(=O)N[C@H](C(=O)N[C@H](C(=O)O)c4cc(O)cc(O)c4-c4cc3ccc4O)[C@H](O)c3ccc(c(Cl)c3)Oc3cc2cc(c3O[C@@H]2O[C@H](CO)[C@@H](O)[C@H](O)[C@H]2O[C@H]2C[C@](C)(N)[C@H](O)[C@H](C)O2)Oc2ccc(cc2Cl)[C@H]1O [Vancomycin, vancomycin]
MIC (E. faecium 1798 [1]; Enterococcus faecium, 1798, 24 h, read-out: Minimum inhibitory concentration): > 256 µg/mL | MIC (E. faecium 2961 [2]; Enterococcus faecium, 2961, 24 h, read-out: Minimum inhibitory concentration): > 256 µg/mL | MIC (E. faecium 3978; Enterococcus faecium, 3978, 24 h, read-out: Minimum inhibitory concentration): 16 µg/mL (≈ 11 µM) | MIC (E. faecium D344R; Enterococcus faecium, D344R, read-out: Minimum inhibitory concentration): 2 µg/mL (≈ 1.38 µM) | MIC (E. faecalis 39002; Enterococcus faecalis, 39002, 24 h, read-out: Minimum inhibitory concentration): 1 µg/mL (≈ 0.69 µM) | MIC (E. faecalis 38262; Enterococcus faecalis, 38262, 24 h, read-out: Minimum inhibitory concentration): 1 µg/mL (≈ 0.69 µM) | MIC (E. faecalis ATCC 29212 [6]): 2 to 4 µg/mL (≈ 1.38 to 2.76 µM) | MIC of antibiotic (E. faecalis ATCC 29212 [7]): 2 to 4 µg/mL | MIC of antibiotic (E. faecium 1798 [8]): > 256 µg/mL | MIC of antibiotic (E. faecium 2961 [9]): > 256 µg/mL | MIC of antibiotic (E. faecium ATCC 19434 [10]): 1 to 2 µg/mL | MIC (E. faecium ATCC 19434 [5]; Enterococcus faecium, ATCC19434, 24 h, read-out: Minimum inhibitory concentration): 1 to 2 µg/mL (≈ 0.69 to 1.38 µM)
